# In PMC6274376, “Naturally Inspired Molecules as Multifunctional Agents for Alzheimer’s Disease Treatment” (Molecules, 2016):
# pIC50: −log10 of the molar value.
# Tested on: SH-SY5Y cells
# Test: Neurotoxicity, MTT cell viability assay
# Type: cell-based, human
# Conditions: SH-SY5Y cells, MTT
# Experimental: Cytotoxic effects in several in vitro or in vivo models have been reported for some chalcones. Therefore, to discriminate the neurotoxic concentrations of the conjugates 3–5 we evaluated the cell viability of human neuronal SH-SY5Y cells after 24 h treatment with these conjugate at different concentrations (1.25–40 μM) using the MTT assay. […] Thus, the presence of an α,β-unsatured carbonyl fragment seems to positively influence the degree of neuronal toxicity, leading to molecules endowed with a favorable SI.
# Human neuronal (SH-SY5Y) cells were routinely grown in Dulbecco’s modified Eagle’ Medium (DMEM) supplemented with 10% fetal bovine serum, 2 mmol/L-glutamine, 50 U·mL^−1penicillin and 50 μg·mL^−1streptomycin at 37 °C in a humidified incubator with 5% CO2.
# To evaluate the neurotoxicity of compounds, the SH-SY5Y cells were seeded in 96-well plates at 2 × 10^4 cells/well, incubated for 24 h and subsequently treated with various concentrations of compounds (1.25–40 µM) for 24 h at 37 °C in 5% CO2;. The cell viability in terms of mitochondrial metabolic function was evaluated by the reduction in 3-(4,5-dimethyl-2-thiazolyl)-2,5-diphenyl-2H-tetrazolium bromide (MTT) to formazan as previously described. The quantity of formazan was directly proportional to the number of viable cells. Briefly, the treatment medium was replaced with MTT (5 mg/mL) in phosphate-buffered saline (PBS) for 2 h at 37 °C in 5% CO2. After washing with PBS, the formazan crystals were dissolved with isopropanol. The amount of formazan was measured (570 nm, reference filter 690 nm) using a multilabel plate reader (VICTOR™ X3, PerkinElmer, Waltham, MA, USA). The neurotoxicity is expressed as concentration of compound resulting in 50% inhibition of cell viability.
smiles,measurement,setting,value
"CN(Cc1ccccc1)Cc1ccc(C(=O)c2ccc(OCCOc3ccc(C(=O)/C=C/c4cccc5ccccc45)c(O)c3)cc2)cc1 [Compound 5, E-1-{4-[2-(4-4-Benzylmethylaminomethylbenzoylphenoxy)ethoxy]-2-hydroxyphenyl}-3-(naphthalen-1-yl)-prop-2-en-1-one]",pIC50,"Homo sapiens, 24 h treatment, 1.25–40 µM, mean ± SD",< 4.40
same,neurotoxic effects,"24 h, 1.25–40 μM",not
